Values quoted from earlier work in patent US4138582A, “Cycloalkenyl analogues of prostaglandin A” (Miles Laboratories, Inc., priority 1977, dated 1979).
“Also recorded” adds a separate entry of the source. Read-outs that look alike come from different tables or passages of the source.

Columns and labels:
[1] = test system: female reproductive system; conditions: fertility, labor, abortion, menstruation
[2] = test system: gastric secretion; conditions: dogs
[3] = test system: growth hormone; conditions: rats
[4] = test system: human platelets; conditions: result in words
[5] = test system: blood platelets; conditions: in vitro
[6] = test system: gastric secretion; conditions: man

Structure (SMILES) | effects in the female reproductive system [1] | inhibition of gastric secretion [2] | growth hormone release / synthesis [3] | inhibition of platelet aggregation by natural prostaglandin [4] | inhibition of thrombogenesis [5] | inhibition of gastric secretion [6]
CCCCC[C@H](O)/C=C/[C@@H]1[C@@H](C/C=C\CCCC(=O)O)[C@@H](O)C[C@H]1O [PGF2α] | has centragestational effects; also recorded: appears to be involved in the mechanism of menstruation; also recorded: induces spontaneous abortions in early pregnancy |  |  |  |  | 
CCCCC[C@H](O)/C=C/[C@H]1[C@H](O)CC(=O)[C@@H]1CCCCCCC(=O)O [PGE1] |  | inhibit gastric secretion | increase release of growth hormone | displays similar activity | inhibits thrombogenesis in vitro | 
CCCCC[C@H](O)/C=C/[C@H]1[C@H](O)CC(=O)[C@@H]1C/C=C\CCCC(=O)O [PGE2] | exerts potent oxytocic effects in inducing labor | inhibit gastric secretion | increase release of growth hormone |  |  | 
CCCCC[C@H](O)/C=C/[C@H]1C=CC(=O)[C@@H]1CCCCCCC(=O)O [PGA1] |  | inhibit gastric secretion | increased synthesis of that hormone |  |  | exhibits similar activity in man
